The test system of assay [1] is HeLa cells. Briefly: hyperspectral imaging of CNOR emission in live HeLa cells. Format: cell-based. Particulars: for effect on blue-shifting of CNOR emission: HeLa cells, relative to control. The method, then: Cell Lines and Cell Culture Procedures: HeLa CCL-2 cells (ATCC, Manassas, Va., US) were grown under standard incubation conditions at 37° C. and 5% CO2 in sterile-filtered DMEM with 10% heat-inactivated FBS, 2.5% HEPES, 1% Glutamine, and 1% Penicillin/Streptomycin (all Gibco). For studies performed with homozygous mutant NPC, compound mutant heterozygote NPC, or wild-type fibroblasts, the cell lines GM18453, GM03123 or GM05659 (Coriell, Camden, N.J., US), respectively, were cultured in MEM with 10% FBS, 2.5% HEPES, and 1% Glutamine. Cells were plated on glass-bottom petri dishes, or lysine-covered glass dishes (MatTek) for fibroblasts. Unpurified SWCNT were incubated at 1 mg/L and separated SWCNT were incubated at 0.25 mg/L in media with cells for 30 minutes at 37° C. Depending on the experiment, cells were imaged immediately, or trypsinized (Gibco) and re-plated on a fresh glass-bottom petri dish followed by hyperspectral imaging. Pharmacological treatments on HeLa cells were performed with Nocodazole (Sigma, 10 μg/mL added after SWCNT incubation) or U18666A (Sigma, 3 μg/mL added 6 hours prior to SWCNT incubation). Fibroblast cells were incubated with hydroxypropyl-β-cyclodextrin (Sigma, 100 μM) 6 hours prior to SWCNT incubation. Cells were incubated for 30 minutes with 0.25 mg/L of the SWCNTs before rinsing and replacing with fresh media. Hyperspectral imaging was conducted immediately afterwards and 24 hours later. A DNA-encapsulated nanotube complex, undergoing a continuous solvatochromic shifting response, spatially and temporally tracked endosomal maturation in live HeLa cells. Separated (8,6) nanotubes encapsulated by an ss(GT)6 oligonucleotide, with a median length of 236 nm, were incubated with HeLa cells at 0.25 mg/L for 30 minutes before rinsing and replacing with fresh media. The wavelength distribution of the nanotube complex in endosomes, measured immediately after uptake, was centered at 1200.7±0.4 nm, near the bulk value observed in water. In lysosomes, after 6 hours post-incubation, the wavelength distribution broadened before blue-shifting to 1194.3±0.7 nm at the 24-hour timepoint (FIG. 2, panel A). A small red-shifted nanotube population, with a mean wavelength of 1205 nm, appeared at the 6-hour time point but disappeared by 24 hours. The relative mean wavelength of each emissive region of interest (ROI) was laid over a transmitted light image of the cells, resulting in spatial visualization of the spectral distribution (FIG. 2, panel B). […] The interaction of GT6-(8,6) nanotubes with RAW 264.7 macrophages was characterized, by incubating 2 pM of nanotubes in cell media for 30 minutes at 37° C. Under these conditions, the majority of cells efficiently took up nanotubes via energy-dependent mechanisms.

In assay [2] the test system is HeLa cells. Briefly: filipin staining of unesterified cholesterol in HeLa cells. In kind it is cell-based. Particulars: fixed HeLa cells, versus control.
Experimental: Filipin staining was conducted by fixing cells with 1.5% paraformaldehyde in PBS for 20 minutes. Cells were then labeled with 50 μg/mL filipin for 45 minutes. After washing, filipin images were acquired using 350/50 nm excitation and 460/50 mm emission filters with a 400 nm dichroic long-pass filter (Olympus).
For another assay, the system named is RAW 264.7 macrophages. Description: CNOR emission in RAW 264.7 macrophages (lysosomal lipid accumulation). Format: cell-based. Particulars: for blue shift compared with control macrophages: DMEM+10% FBS, U18666A, 10 uM Lalistat. The method, then:
A DNA-encapsulated nanotube complex, undergoing a continuous solvatochromic shifting response, spatially and temporally tracked endosomal maturation in live HeLa cells. Separated (8,6) nanotubes encapsulated by an ss(GT)6 oligonucleotide, with a median length of 236 nm, were incubated with HeLa cells at 0.25 mg/L for 30 minutes before rinsing and replacing with fresh media. The wavelength distribution of the nanotube complex in endosomes, measured immediately after uptake, was centered at 1200.7±0.4 nm, near the bulk value observed in water. In lysosomes, after 6 hours post-incubation, the wavelength distribution broadened before blue-shifting to 1194.3±0.7 nm at the 24-hour timepoint (FIG. 2, panel A). A small red-shifted nanotube population, with a mean wavelength of 1205 nm, appeared at the 6-hour time point but disappeared by 24 hours. The relative mean wavelength of each emissive region of interest (ROI) was laid over a transmitted light image of the cells, resulting in spatial visualization of the spectral distribution (FIG. 2, panel B). […] The interaction of GT6-(8,6) nanotubes with RAW 264.7 macrophages was characterized, by incubating 2 pM of nanotubes in cell media for 30 minutes at 37° C. Under these conditions, the majority of cells efficiently took up nanotubes via energy-dependent mechanisms.
RAW macrophages were incubated in lipoprotein depleted serum (LPDS) for 24 hours. Incubation in these conditions reduces the lipid content of the lysosomes and increases the number of surface receptors for acetylated LDL (Ac-LDL) on the cell surface. To induce lipid accumulation in the lysosomes, Ac-LDL and U18666A (a cholesterol transport inhibitor) were introduced to cells incubating in the lipoprotein depleted serum. […]
The reporter detected Wolman's disease, a lysosomal storage disorder characterized by the accumulation of esterified cholesterol in the lysosomes due to a non-functioning lysosomal acid lipase (LAL). […]

For assay [3], the system named is NPC1 fibroblasts (compound heterozygous mutations of the NPC1 gene). Briefly: reporter emission in compound heterozygous NPC1 patient fibroblasts. Format: cell-based, human. As to the method: (§1) Cell Lines and Cell Culture Procedures: HeLa CCL-2 cells (ATCC, Manassas, Va., US) were grown under standard incubation conditions at 37° C. and 5% CO2 in sterile-filtered DMEM with 10% heat-inactivated FBS, 2.5% HEPES, 1% Glutamine, and 1% Penicillin/Streptomycin (all Gibco). For studies performed with homozygous mutant NPC, compound mutant heterozygote NPC, or wild-type fibroblasts, the cell lines GM18453, GM03123 or GM05659 (Coriell, Camden, N.J., US), respectively, were cultured in MEM with 10% FBS, 2.5% HEPES, and 1% Glutamine. Cells were plated on glass-bottom petri dishes, or lysine-covered glass dishes (MatTek) for fibroblasts. Unpurified SWCNT were incubated at 1 mg/L and separated SWCNT were incubated at 0.25 mg/L in media with cells for 30 minutes at 37° C. Depending on the experiment, cells were imaged immediately, or trypsinized (Gibco) and re-plated on a fresh glass-bottom petri dish followed by hyperspectral imaging.
In a similar procedure to the experiment with homozygous NPC cells, fibroblasts with the compound heterozygous mutation of the NPC1 gene were plated on a poly-d-lysine-coated glass-bottomed petri-dish and imaged at different time points after an initial 30 minute incubation with the SWCNTs. Histograms of the wavelength distribution profile of the SWCNTs were obtained. […]

Assay [4] concerns NPC fibroblasts (homozygous mutation of the NPC1 gene). Briefly: CNOR emission in homozygous NPC patient fibroblasts. Format: cell-based, human. As to the method: as §1
Pharmacological treatments on HeLa cells were performed with Nocodazole (Sigma, 10 μg/mL added after SWCNT incubation) or U18666A (Sigma, 3 μg/mL added 6 hours prior to SWCNT incubation). […]
Niemann Pick Type-C(NPC) is a lysosomal storage disorder characterized by massive accumulation of unesterified cholesterol in the lysosomes of patient fibroblasts. […]

Regarding `Cl.N` [NH4Cl], the “effect on CNOR emission populations” value in the assay on HeLa cells [1] (50 mM added 6 hours after incubation with the CNOR) is on record as “blue-shifted population remained unaffected while the red-shifted population was depleted”.

Regarding `CCN(CC)CCO[C@H]1CC[C@@]2(C)C(=CC[C@@H]3[C@@H]2CC[C@]2(C)C(=O)CC[C@@H]32)C1` [U18666A], in the assay on HeLa cells [2], the “intensity of filipin in the cell interior” value is reported as “increased greatly”. Besides, the “further increase in blue shift than in untreated control cells” value with HeLa cells [1] (3 μg/mL for six hours before incubation with the CNOR, at 24 hours) is recorded as 3.8±0.7 nm. Further, in the assay with HeLa cells [1], the “effect on blue-shifting of CNOR emission” value is listed as “enhanced”. In addition, the “blue shift compared with control macrophages” value in the assay with RAW 264.7 macrophages is ~8 nm. For the same molecule, the “CNOR blue-shift in drug-treated cells relative to drug-free control” value in the assay with RAW 264.7 macrophages (RAW 264.7 macrophages) amounted to 11.1±1.1 nm.

With `COC(=O)Nc1nc2ccc(C(=O)c3cccs3)cc2[nH]1` [nocodazole], in the assay on HeLa cells [1], the “effect on blue-shifting of CNOR emission” value is given as “prevented the blue-shifting”. Also, the “mean CNOR emission” value with HeLa cells [1] (nocodazole 10 μg/mL, up to 24 hours after internalization, control 1194.28±0.73) worked out at 1200.07±1.4 nm.

Consider Lalistat, for which the “blue shift compared with control macrophages” value with RAW 264.7 macrophages is reported as ~8 nm.

hydroxypropyl-β-cyclodextrin [HPβCD]: in assay [3] (100 uM for 24 hours, 24 hours after nanotube addition), the “red-shift of nanotube emission” value is reported as “approximately 4 nm”. In assay [3] (pre-treated 24 hours prior to nanotube addition), the “emission in pretreated NPC1 cells versus WT fibroblasts” value is reported as “identical emission values”. Further, the “effect on CNOR blue-shift in NPC cells” value in assay [4] (HPβCD for additional 24 hours, after imaging at 24 hours) was “reversal of the CNOR blue-shift”. The “effect of pre-treatment on CNOR fluorescence shifting in diseased cells” value in assay [4] (pre-treatment before CNOR incubation) is on record as “prevented CNOR fluorescence from shifting”.

For the origin of these results see patent US10401295B2, “Composition and method for monitoring lipid” (Memorial Sloan-Kettering Cancer Center, priority 2014, dated 2019).
